Literature values, collected in paper PMC12009570 (International Journal of Nanomedicine, 2025).

What was measured:
[1] = not given; remark: listed apart in the source

Cl.O=C1[C@@H]2[C@H]3CC[C@H](C3)[C@@H]2C(=O)N1C[C@@H]1CCCC[C@H]1CN1CCN(c2nsc3ccccc23)CC1 [LSD, Lurasidone hydrochloride]
pH at which most soluble: 3.8 | oral bioavailability ([1]; conventional tablets, oral): 9–19% | AUC, times higher than in the fasted state ([1]; food effect): 2 times | Cmax, times higher than in the fasted state ([1]; food effect): 3 times
